Each structure is given as a SMILES string.

This is an account of results in paper PMC5510229, “BCAT1 controls metabolic reprogramming in activated human macrophages and is associated with inflammatory diseases” (Nature Communications, 2017).

The subject of the assay is human monocyte-derived macrophages (hMDMs). The assay can be described thus: Seahorse extracellular flux analysis (OCR, ECAR) in hMDMs. It is filed as cell-based. The conditions noted are these: LPS 100 ng ml^−1 + ERG240 20 mM, 3 h. On the procedure: Figure 2 BCAT1 inhibition reduces oxygen consumption and glycolysis in human macrophages. (a) Real-time extracellular OCR measurements in hMDMs (left panel) that were previously treated with either LPS (100 ng ml^−1) or LPS+ERG240 (20 mM) for 3 h. OCR values were recorded following sequential treatments with glucose (5 mM), oligomycin A (0.5 μM), carbonyl cyanide 4-(trifluoromethoxy) phenyl- hydrazine (FCCP, 1 μM) and a combination of 2-deoxy-D-glucose (2-DG, 50 mM), antimycin A (1 μM) and rotenone (1 μM). Basal respiration, estimated ATP production, and maximal respiration are shown in the right panel. n=3 healthy donor hMDMs were used in 12 technical replicates. The results are representative of three independent experiments. (b) Real-time ECAR (left panel), glycolysis and glycolytic capacity (right panel). n=3 healthy donor hMDMs were used in 12 technical replicates. The results are representative of three independent experiments. (c) hMDMs were subjected to BCAT1 siRNA (si-BCAT1) or non-targeting siRNA (Si-Control) treatment, followed by LPS stimulation (3 h, 100 ng ml^−1) before measuring BCAT1 expression levels (left panel), OCR (middle panel) and ECAR (right panel). (d) Basal respiration, estimated ATP production, maximal respiration, glycolysis and glycolytic capacity in si-Control and si-BCAT1 transfected, LPS-treated hMDMs. n=4 hMDMs were used in at least five technical replicates. Error bars are s.e.m. Significance was tested using two-tailed Student’s t-test.
Real-time measurements of OCR and ECAR were performed using a Seahorse XF96 Extracellular Flux Analyzer (Seahorse Bioscience). hMDMs cultured for 5 days in presence of RPMI containing M-CSF (100 ng ml^−1) and FCS (10%) were washed and incubated with either ERG240 or LPS or a combination of both for 3 h. Cells were then washed, re-suspended using the non-enzymatic cell dissociation buffer (Sigma) and 5 × 10^5 hMDMs were seeded as a monolayer in a 96-well microplate containing XF Assay Modified DMEM. Glucose and different metabolic drugs were injected during real-time measurements of OCR and ECAR. Basal respiration was calculated as the last measurement before addition of oligomycin – non mitochondrial respiration (minimum rate measurement after Rot/AntA). Estimated ATP production designates the last measurement before addition of oligomycin – minimum rate after oligomycin. Maximal respiration is shown as the maximum rate measurement after addition of FCCP – non mitochondrial respiration (minimum rate measurement after Rot/AntA). Glycolysis refers to ECAR values before the addition of oligomycin – ECAR values before the addition of glucose. […] In RNAi experiments, hMDMs transfected with either BCAT1 siRNA or control (non-targeting) siRNA were seeded in a 96-well microplate, LPS-stimulated (100 ng ml^−1, 3 h) and real-time measurements of OCR and ECAR were recorded, as described above.

`CC(=O)C(C)CCC(=O)O` (stereo not shown) [ERG240]: the basal respiration entry is recorded as “significantly reduced”, the “estimated ATP production” value is “significantly reduced”, the “extracellular acidification rate (ECAR)” value is given as “decreased” and the glycolysis entry is on record as “significantly reduced”. Moreover, the glycolytic capacity result is “significantly reduced”, the maximal respiration result is on record as “significantly reduced” and the “oxygen consumption rate (OCR)” value was “decreased”.
